Test results taken from publication PMC5580309, “Molecular-scale features that govern the effects of O-glycosylation on a carbohydrate-binding module” (Chemical Science, 2015).
Bridge positions count the residues as written; N and C are the ends. Peptide text beside a SMILES is read from it. * marks the point of attachment. X1 = OC[C@H]1O[C@H](OC[C@H]2O[C@H](*)[C@@H](O)[C@@H](O)[C@@H]2O)[C@@H](O)[C@@H](O)[C@@H]1O; αGalNAc = CC(=O)N[C@@H]1[C@@H](O)[C@@H](O)[C@@H](CO)O[C@@H]1*; βGlcNAc = CC(=O)N[C@@H]1[C@@H](O)[C@H](O)[C@@H](CO)O[C@H]1*; βGlc = OC[C@H]1O[C@@H](*)[C@H](O)[C@@H](O)[C@@H]1O; βGal = OC[C@H]1O[C@@H](*)[C@H](O)[C@@H](O)[C@H]1O; X6 = C[C@@H]1O[C@@H](*)[C@@H](O)[C@H](O)[C@@H]1O; X9 = OC[C@H]1O[C@H](*)[C@H](O)[C@@H](O)[C@H]1O

Target: T1, thermolysin (Bacillus thermoproteolyticus, UniProt P00800)
T1 sequence (P00800 233-548): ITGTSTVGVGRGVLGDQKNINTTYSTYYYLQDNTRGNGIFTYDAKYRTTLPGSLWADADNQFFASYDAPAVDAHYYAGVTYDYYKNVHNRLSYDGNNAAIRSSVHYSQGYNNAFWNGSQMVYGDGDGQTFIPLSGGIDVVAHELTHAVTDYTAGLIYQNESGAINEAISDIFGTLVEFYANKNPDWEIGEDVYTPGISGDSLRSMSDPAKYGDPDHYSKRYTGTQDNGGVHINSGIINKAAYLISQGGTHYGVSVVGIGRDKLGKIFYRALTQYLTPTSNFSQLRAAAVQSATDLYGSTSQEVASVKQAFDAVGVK
Assay: Proteolytic stability: half-life to thermolysin degradation
Format: in vitro ADME
Details: for Change in Half-Life to Thermolysin Degradation: glyco-variant minus its corresponding unglycosylated CBM (e.g. 2-1), *** not used in the correlation plot; for half-life: thermolysin (isolated protease), thermolysin degradation, mean of three trials ± SD, procedures as described previously (ESI ref 18)
Description: All error bars reported are standard deviations of data achieved from three separate trials.
cellulose that were determined in accordance with our procedures as described previously 18.
The results are presented as mean of three trials ± SD. *Denotes an averaged value of four trials

**Q.** With `CC[C@H](C)[C@@H]1NC(=O)CNC(=O)CNC(=O)[C@@H](NC(=O)[C@H](CCC(N)=O)NC(=O)CNC(=O)[C@H](Cc2ccc(O)cc2)NC(=O)[C@H](Cc2c[nH]cn2)NC(=O)[C@H](CO[C@@H]2O[C@H](CO)[C@@H](O)[C@H](O)[C@H]2NC(C)=O)NC(=O)[C@H](CCC(N)=O)NC(=O)[C@@H](N)[C@@H](C)O)CSSC[C@@H]2NC(=O)[C@H]([C@@H](C)O)NC(=O)[C@H]([C@@H](C)O)NC(=O)CNC(=O)[C@H](CO)NC(=O)[C@H](C)NC(=O)[C@H](CSSC[C@@H](C(=O)N[C@@H](CC(C)C)C(=O)O)NC(=O)[C@H](CCC(N)=O)NC(=O)[C@H](CO)NC(=O)[C@H](Cc3ccc(O)cc3)NC(=O)[C@H](Cc3ccc(O)cc3)NC(=O)[C@@H]3CCCN3C(=O)[C@H](CC(N)=O)NC(=O)[C@H](CC(C)C)NC(=O)[C@H](C(C)C)NC(=O)[C@H](CCC(N)=O)NC2=O)NC(=O)[C@H](C(C)C)NC(=O)[C@H]([C@@H](C)O)NC(=O)[C@@H]2CCCN2C(=O)CNC(=O)[C@H](CO)NC(=O)[C@H](Cc2ccc(O)cc2)NC(=O)CNC1=O` [CBM variant 23] (H-TQS(βGlcNAc)HYGQCGGIGYSGPTVCASGTTCQVLNPYYSQCL-OH; disulfide 8-25, 19-35) as the compound, how does the “Change in Half-Life to Thermolysin Degradation” value (from here on “Change in Half-Life”) read?
**A.** Its value is 5.4 min.

**Q.** And the half-life?
**A.** Its half-life is 19.2 ± 0.6 min.

**Q.** What does the source list for `CC[C@H](C)[C@@H]1NC(=O)CNC(=O)CNC(=O)[C@@H](NC(=O)[C@H](CCC(N)=O)NC(=O)CNC(=O)[C@H](Cc2ccc(O)cc2)NC(=O)[C@H](Cc2c[nH]cn2)NC(=O)[C@H](CO[C@@H]2O[C@H](CO)[C@@H](O)[C@H](O)[C@H]2O)NC(=O)[C@H](CCC(N)=O)NC(=O)[C@@H](N)[C@@H](C)O)CSSC[C@@H]2NC(=O)[C@H]([C@@H](C)O)NC(=O)[C@H]([C@@H](C)O)NC(=O)CNC(=O)[C@H](CO)NC(=O)[C@H](C)NC(=O)[C@H](CSSC[C@@H](C(=O)N[C@@H](CC(C)C)C(=O)O)NC(=O)[C@H](CCC(N)=O)NC(=O)[C@H](CO)NC(=O)[C@H](Cc3ccc(O)cc3)NC(=O)[C@H](Cc3ccc(O)cc3)NC(=O)[C@@H]3CCCN3C(=O)[C@H](CC(N)=O)NC(=O)[C@H](CC(C)C)NC(=O)[C@H](C(C)C)NC(=O)[C@H](CCC(N)=O)NC2=O)NC(=O)[C@H](C(C)C)NC(=O)[C@H]([C@@H](C)O)NC(=O)[C@@H]2CCCN2C(=O)CNC(=O)[C@H](CO)NC(=O)[C@H](Cc2ccc(O)cc2)NC(=O)CNC1=O` [CBM variant 24] (H-TQS(βGlc)HYGQCGGIGYSGPTVCASGTTCQVLNPYYSQCL-OH; disulfide 8-25, 19-35)?
**A.** Change in Half-Life to Thermolysin Degradation: 3 min; half-life: 16.8 ± 1.8 min

**Q.** What does the source list for `CC[C@H](C)[C@@H]1NC(=O)CNC(=O)CNC(=O)[C@@H](NC(=O)[C@H](CCC(N)=O)NC(=O)CNC(=O)[C@H](Cc2ccc(O)cc2)NC(=O)[C@H](Cc2c[nH]cn2)NC(=O)[C@H](CO[C@H]2O[C@H](CO)[C@H](O)[C@H](O)[C@H]2NC(C)=O)NC(=O)[C@H](CCC(N)=O)NC(=O)[C@@H](N)[C@@H](C)O)CSSC[C@@H]2NC(=O)[C@H]([C@@H](C)O)NC(=O)[C@H]([C@@H](C)O)NC(=O)CNC(=O)[C@H](CO)NC(=O)[C@H](C)NC(=O)[C@H](CSSC[C@@H](C(=O)N[C@@H](CC(C)C)C(=O)O)NC(=O)[C@H](CCC(N)=O)NC(=O)[C@H](CO)NC(=O)[C@H](Cc3ccc(O)cc3)NC(=O)[C@H](Cc3ccc(O)cc3)NC(=O)[C@@H]3CCCN3C(=O)[C@H](CC(N)=O)NC(=O)[C@H](CC(C)C)NC(=O)[C@H](C(C)C)NC(=O)[C@H](CCC(N)=O)NC2=O)NC(=O)[C@H](C(C)C)NC(=O)[C@H]([C@@H](C)O)NC(=O)[C@@H]2CCCN2C(=O)CNC(=O)[C@H](CO)NC(=O)[C@H](Cc2ccc(O)cc2)NC(=O)CNC1=O` [CBM variant 25] (H-TQS(αGalNAc)HYGQCGGIGYSGPTVCASGTTCQVLNPYYSQCL-OH; disulfide 8-25, 19-35)?
**A.** Change in Half-Life to Thermolysin Degradation: 9 min; half-life: 22.8 ± 3 min

**Q.** How did the “Change in Half-Life” value turn out when `CC[C@H](C)[C@@H]1NC(=O)CNC(=O)CNC(=O)[C@@H](NC(=O)[C@H](CCC(N)=O)NC(=O)CNC(=O)[C@H](Cc2ccc(O)cc2)NC(=O)[C@H](Cc2c[nH]cn2)NC(=O)[C@H](CO[C@H]2O[C@H](CO)[C@H](O)[C@H](O)[C@H]2O)NC(=O)[C@H](CCC(N)=O)NC(=O)[C@@H](N)[C@@H](C)O)CSSC[C@@H]2NC(=O)[C@H]([C@@H](C)O)NC(=O)[C@H]([C@@H](C)O)NC(=O)CNC(=O)[C@H](CO)NC(=O)[C@H](C)NC(=O)[C@H](CSSC[C@@H](C(=O)N[C@@H](CC(C)C)C(=O)O)NC(=O)[C@H](CCC(N)=O)NC(=O)[C@H](CO)NC(=O)[C@H](Cc3ccc(O)cc3)NC(=O)[C@H](Cc3ccc(O)cc3)NC(=O)[C@@H]3CCCN3C(=O)[C@H](CC(N)=O)NC(=O)[C@H](CC(C)C)NC(=O)[C@H](C(C)C)NC(=O)[C@H](CCC(N)=O)NC2=O)NC(=O)[C@H](C(C)C)NC(=O)[C@H]([C@@H](C)O)NC(=O)[C@@H]2CCCN2C(=O)CNC(=O)[C@H](CO)NC(=O)[C@H](Cc2ccc(O)cc2)NC(=O)CNC1=O` [CBM variant 26] (H-TQS(X9)HYGQCGGIGYSGPTVCASGTTCQVLNPYYSQCL-OH; disulfide 8-25, 19-35) was run?
**A.** The value was 16.2 min.

**Q.** And the half-life?
**A.** The half-life was 30 ± 3 min.

**Q.** For `CC[C@H](C)[C@@H]1NC(=O)CNC(=O)CNC(=O)[C@@H](NC(=O)[C@H](CCC(N)=O)NC(=O)CNC(=O)[C@H](Cc2ccc(O)cc2)NC(=O)[C@H](Cc2c[nH]cn2)NC(=O)[C@H](CO[C@@H]2O[C@H](CO)[C@H](O)[C@H](O)[C@H]2O)NC(=O)[C@H](CCC(N)=O)NC(=O)[C@@H](N)[C@@H](C)O)CSSC[C@@H]2NC(=O)[C@H]([C@@H](C)O)NC(=O)[C@H]([C@@H](C)O)NC(=O)CNC(=O)[C@H](CO)NC(=O)[C@H](C)NC(=O)[C@H](CSSC[C@@H](C(=O)N[C@@H](CC(C)C)C(=O)O)NC(=O)[C@H](CCC(N)=O)NC(=O)[C@H](CO)NC(=O)[C@H](Cc3ccc(O)cc3)NC(=O)[C@H](Cc3ccc(O)cc3)NC(=O)[C@@H]3CCCN3C(=O)[C@H](CC(N)=O)NC(=O)[C@H](CC(C)C)NC(=O)[C@H](C(C)C)NC(=O)[C@H](CCC(N)=O)NC2=O)NC(=O)[C@H](C(C)C)NC(=O)[C@H]([C@@H](C)O)NC(=O)[C@@H]2CCCN2C(=O)CNC(=O)[C@H](CO)NC(=O)[C@H](Cc2ccc(O)cc2)NC(=O)CNC1=O` [CBM variant 27] (H-TQS(βGal)HYGQCGGIGYSGPTVCASGTTCQVLNPYYSQCL-OH; disulfide 8-25, 19-35), which “Change in Half-Life” value is on record?
**A.** The value was 3.6 min.

**Q.** What about the half-life of the same compound?
**A.** The half-life was 17.4 ± 1.2 min.

**Q.** Which “Change in Half-Life” value does the source give for `CC[C@H](C)[C@@H]1NC(=O)CNC(=O)CNC(=O)[C@@H](NC(=O)[C@H](CCC(N)=O)NC(=O)CNC(=O)[C@H](Cc2ccc(O)cc2)NC(=O)[C@H](Cc2c[nH]cn2)NC(=O)[C@H](CO[C@@H]2O[C@@H](C)[C@@H](O)[C@@H](O)[C@@H]2O)NC(=O)[C@H](CCC(N)=O)NC(=O)[C@@H](N)[C@@H](C)O)CSSC[C@@H]2NC(=O)[C@H]([C@@H](C)O)NC(=O)[C@H]([C@@H](C)O)NC(=O)CNC(=O)[C@H](CO)NC(=O)[C@H](C)NC(=O)[C@H](CSSC[C@@H](C(=O)N[C@@H](CC(C)C)C(=O)O)NC(=O)[C@H](CCC(N)=O)NC(=O)[C@H](CO)NC(=O)[C@H](Cc3ccc(O)cc3)NC(=O)[C@H](Cc3ccc(O)cc3)NC(=O)[C@@H]3CCCN3C(=O)[C@H](CC(N)=O)NC(=O)[C@H](CC(C)C)NC(=O)[C@H](C(C)C)NC(=O)[C@H](CCC(N)=O)NC2=O)NC(=O)[C@H](C(C)C)NC(=O)[C@H]([C@@H](C)O)NC(=O)[C@@H]2CCCN2C(=O)CNC(=O)[C@H](CO)NC(=O)[C@H](Cc2ccc(O)cc2)NC(=O)CNC1=O` [CBM variant 28] (H-TQS(X6)HYGQCGGIGYSGPTVCASGTTCQVLNPYYSQCL-OH; disulfide 8-25, 19-35) here?
**A.** The value was 23.4 min.

**Q.** And the half-life?
**A.** Its half-life is 37.2 ± 6.6 min.

**Q.** For `CC[C@H](C)[C@@H]1NC(=O)CNC(=O)CNC(=O)[C@@H](NC(=O)[C@H](CCC(N)=O)NC(=O)CNC(=O)[C@H](Cc2ccc(O)cc2)NC(=O)[C@H](Cc2c[nH]cn2)NC(=O)[C@H](CO[C@H]2O[C@H](CO[C@H]3O[C@H](CO)[C@@H](O)[C@H](O)[C@@H]3O)[C@@H](O)[C@H](O)[C@@H]2O)NC(=O)[C@H](CCC(N)=O)NC(=O)[C@@H](N)[C@@H](C)O)CSSC[C@@H]2NC(=O)[C@H]([C@@H](C)O)NC(=O)[C@H]([C@@H](C)O)NC(=O)CNC(=O)[C@H](CO)NC(=O)[C@H](C)NC(=O)[C@H](CSSC[C@@H](C(=O)N[C@@H](CC(C)C)C(=O)O)NC(=O)[C@H](CCC(N)=O)NC(=O)[C@H](CO)NC(=O)[C@H](Cc3ccc(O)cc3)NC(=O)[C@H](Cc3ccc(O)cc3)NC(=O)[C@@H]3CCCN3C(=O)[C@H](CC(N)=O)NC(=O)[C@H](CC(C)C)NC(=O)[C@H](C(C)C)NC(=O)[C@H](CCC(N)=O)NC2=O)NC(=O)[C@H](C(C)C)NC(=O)[C@H]([C@@H](C)O)NC(=O)[C@@H]2CCCN2C(=O)CNC(=O)[C@H](CO)NC(=O)[C@H](Cc2ccc(O)cc2)NC(=O)CNC1=O` [CBM variant 29] (H-TQS(X1)HYGQCGGIGYSGPTVCASGTTCQVLNPYYSQCL-OH; disulfide 8-25, 19-35), which “Change in Half-Life” value is on record?
**A.** Its value is 37.8 min.

**Q.** And the half-life?
**A.** The half-life was 51.6 ± 1.8 min.
